Test results reported in patent publication US20100331330A1, “METHODS AND COMPOSITIONS FOR TREATING ISCHEMIC STROKE” (priority 2006, published 2010).

Assays:
rat cerebellum = settings: injection; bacterial lipopolysaccharide and interferon-γ; cited from earlier work
PPARγ = molecular target: T1, PPARγ (Homo sapiens, UniProt P37231); settings: cited from earlier work
T1 sequence (P37231 1-505): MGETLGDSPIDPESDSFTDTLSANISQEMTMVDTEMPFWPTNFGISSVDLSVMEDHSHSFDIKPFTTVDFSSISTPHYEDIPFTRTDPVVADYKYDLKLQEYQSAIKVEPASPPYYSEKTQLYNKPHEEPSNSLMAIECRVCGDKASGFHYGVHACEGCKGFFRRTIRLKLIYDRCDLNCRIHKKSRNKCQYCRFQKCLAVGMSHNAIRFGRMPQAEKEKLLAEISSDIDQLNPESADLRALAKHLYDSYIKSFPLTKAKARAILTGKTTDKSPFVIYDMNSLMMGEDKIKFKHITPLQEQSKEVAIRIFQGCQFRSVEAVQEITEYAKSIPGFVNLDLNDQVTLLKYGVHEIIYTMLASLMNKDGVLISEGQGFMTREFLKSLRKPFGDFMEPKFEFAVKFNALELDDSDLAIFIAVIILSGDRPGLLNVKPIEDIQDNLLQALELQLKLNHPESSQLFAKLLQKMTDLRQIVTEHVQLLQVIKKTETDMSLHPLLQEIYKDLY

hemorrhagic stroke = settings: in vivo; cited from earlier work
[1] = system: rats subjected to middle cerebral artery occlusion (MCAO); settings: 90 minute MCAO
Source text: Male Wistar rats, 250-350 g, were obtained from Charles River (Wilmington, Mass.). Animals were housed and cared for in the Animal Resource Center and allowed free access to food and water before and after surgery. All procedures were approved by the Institutional Animal Care and Use Committee of Case Western Reserve University.
A 4.0 nylon suture with a flame rounded tip was advanced through the internal carotid artery to occlude the MCA while cerebral blood flow was monitored using laser doppler (Perimed AB, Jarfalla, Sweden). At the time of reperfusion rats were again anesthetized and the suture removed with cerebral blood flow monitoring to ensure reperfusion. Arterial blood pressure, arterial blood gases and temperature were all monitored and controlled during the length of the procedure.
Control animals were injected with 0.1 ml DMSO.
Rats were euthanized by exposure to 5% halothane until breathing ceased. They then underwent intracardiac perfusion first with PBS and then with 4% paraformaldehyde. Brains were isolated and immersion fixed in 4% paraformaldehyde overnight. Tissue was cryoprotected in 30% sucrose in PBS. Twenty micron frozen sections were collected every […] beginning at the level of the forceps minor corpus callosum and extending through the hippocampus. Sections were stained with Thionin and the area of infarction measured using Bioquant computer software (R&M Biometrics, Nashville, Tenn.) by subtracting the uninfarcted tissue in the ischemic hemisphere from the volume of the contralateral hemisphere. This method corrects for post-ischemic edema.
Male Wistar rats, 250-350 g, were obtained from Charles River (Wilmington, Mass.). […] Animals were housed and cared for in the Animal Resource Center and allowed free access to food and water before and after surgery. […] The tail artery was exposed and cannulated to measure mean arterial blood pressure and to obtain blood for blood gas measurements during surgery. Animals in which normal temperature, blood pressure and gases could not be maintained were excluded from the study. MCAO was performed as previously described. Briefly, the bifurcation of the common carotid artery was exposed. The external carotid artery was isolated and a suture placed 0.5 cm from the bifurcation. Following electrocoagulation distal to the suture the external carotid was cut between the suture and the electrocoagulated segment. A suture was applied to the common carotid artery such that it could be removed later. A loop of suture was then placed under the internal carotid artery and the artery elevated to transiently occlude blood flow. A small nick was made in the wall of the external carotid artery. Through this nick a 22 mm length of 4.0 Ethicon suture, its tip rounded by heating near a flame, was gently threaded from the external to the internal carotid artery lumen to a distance of 18 mm from the bifurcation of the carotid. The thread was held in place with a suture around the stump of the external carotid artery and the suture around the internal carotid artery released. The catheter was removed from the tail artery and both incisions were closed. The rats were then allowed to recover from anesthesia. […] The neck incision was reopened and the 4.0 Ethicon suture removed. The suture that held it in place was tightened and the suture around the common carotid artery was removed. After confirmation of reperfusion by visual inspection, the incision was closed and the animal allowed to recover.
Twenty micron frozen sections of paraformaldehyde fixed brains were collected every 1000 μm beginning at the level of the forceps minor corpus callosum and extending through the hippocampus. The slides were stained with Thionin. The sections were then trans-illuminated and the image transmitted to a computer screen.

ICAM mRNA = ICAM mRNA by real time PCR after MCAO; assay type: in vivo, rat; settings: rosiglitazone 0.1 mg/kg or pioglitazone 1 mg/kg 24 h before and at time of 2 hour MCAO; sacrificed 24 h later
PPARγ-PPRE binding = molecular target: T2, PPARγ-PPRE binding (Rattus norvegicus, UniProt O88275); experiment: Electrophoretic mobility shift assay of PPARγ DNA (PPRE) binding in brain nuclear extract; assay type: in vivo; settings: both ipsilateral and contralateral hemispheres, 0.1 mg/kg 24 h before and at time of 2 hour MCAO
T2 construct: from tissue; host or cells: rat brain nuclear extract (ipsilateral and contralateral hemisphere after MCAO)
T2 sequence (O88275 1-505): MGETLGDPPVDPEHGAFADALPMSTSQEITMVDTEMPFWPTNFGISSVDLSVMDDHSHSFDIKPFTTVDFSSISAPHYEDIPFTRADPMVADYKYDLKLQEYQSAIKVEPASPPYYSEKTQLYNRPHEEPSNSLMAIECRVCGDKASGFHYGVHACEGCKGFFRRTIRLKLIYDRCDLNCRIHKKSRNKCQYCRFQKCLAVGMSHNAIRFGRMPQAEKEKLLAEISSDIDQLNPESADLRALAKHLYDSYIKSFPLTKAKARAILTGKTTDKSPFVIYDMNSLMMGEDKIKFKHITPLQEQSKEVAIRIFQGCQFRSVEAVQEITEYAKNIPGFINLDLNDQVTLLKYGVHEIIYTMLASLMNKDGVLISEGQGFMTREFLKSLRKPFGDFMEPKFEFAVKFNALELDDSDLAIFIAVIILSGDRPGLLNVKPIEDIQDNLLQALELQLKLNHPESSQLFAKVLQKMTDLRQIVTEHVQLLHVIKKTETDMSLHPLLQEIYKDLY
T2 sequence (Q05343 1-467 partner): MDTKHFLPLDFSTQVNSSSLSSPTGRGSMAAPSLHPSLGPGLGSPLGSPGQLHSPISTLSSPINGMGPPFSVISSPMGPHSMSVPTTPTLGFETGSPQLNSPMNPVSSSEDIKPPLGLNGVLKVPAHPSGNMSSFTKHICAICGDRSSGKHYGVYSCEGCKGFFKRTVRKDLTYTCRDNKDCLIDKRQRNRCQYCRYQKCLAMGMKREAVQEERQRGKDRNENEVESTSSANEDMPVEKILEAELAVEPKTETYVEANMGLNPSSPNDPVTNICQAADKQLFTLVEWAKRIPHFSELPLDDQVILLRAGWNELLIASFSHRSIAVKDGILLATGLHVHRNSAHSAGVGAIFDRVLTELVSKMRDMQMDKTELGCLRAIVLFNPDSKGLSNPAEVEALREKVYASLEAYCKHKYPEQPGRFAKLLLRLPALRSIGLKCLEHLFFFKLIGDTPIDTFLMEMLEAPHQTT
Experimental: Eight hours after the onset of MCAO the animals were euthanized by halothane inhalation and the brains quickly removed. Blocks of tissue 4 mm thick encompassing the rostral caudal extension of the infarct and the same area on the contralateral hemisphere were dissected free and snap frozen in liquid nitrogen. Nuclear extraction was performed and protein concentrations were determined using the Bradford method.
Ten micrograms of nuclear extract protein was incubated with 32P-labeled double stranded oligonucleotide (40 fmol) containing the PPAR responsive element sequences in rat acyl CoA oxidase promoter (5′-[…]-3′) (SEQ ID NO: 5). For competition assays, 100 fold radioinert (cold) competitor oligonucleotides were included in the reaction mixture. Interference assays with antibody to PPARγ (2 μg/reaction; SC-7273x, Santa Cruz Biotechnology,) were used to determine specificity of PPARγ-PPRE binding.
Nucleoprotein-oligonucleotide complexes were resolved electrophoretically on a 7% non-denaturing polyacrylamide gel. The gel was autoradiographed and optical density was assessed using Kodak Analysis (EDAS) 290 system.

LPL mRNA = experiment: Lipoprotein lipase (LPL) mRNA by real time PCR after MCAO; assay type: in vivo, rat; settings: rosiglitazone 0.1 mg/kg, pioglitazone 1.0 mg/kg; 24 h before and at time of 2 hour MCAO; tissue 24 h later
Source text: At the time of sacrifice the animal was placed in an anesthesia chamber and exposed to 5% halothane, 30% oxygen, 65% nitrous oxide until it ceased breathing. The rat was the, processed for either histologic and immunocytochemical analysis or decapitated and the brain immediately dissected for mRNA isolation. Animals used for immunohistochemistry underwent intracardiac perfusion; the thoracic cavity was opened, a blunt needle placed through the left ventricle into the aorta and the right atrium cut. Animals were perfused through the heart, first with 0.1 M phosphate buffer and then with 4% paraformaldehyde (pH 7.4). The brain was removed from the rat and immersion fixed in 4% paraformaldehyde for an additional hour. Tissue was then transferred to 30% sucrose in phosphate buffer in order to cyroprotect it. Brains were mounted in OCT sectioning medium and frozen sections cut at either twenty microns (for infarct volume determination) or ten microns (for immunocytochemistry). Animals used in real time PCR experiments were decapitated after euthanasia and the brain quickly removed.
A 2 mm thick coronal slice of tissue through the area of maximal infarction was quickly homogenized in Trizol (Gibco BRL, Rockville, Md.). […] RNA was isolated using Life Technologies Protocol (Rockville, Md.), and cDNA synthesized from 1.5 μg of total RNA. […]

[2] = Physiologic parameters and cerebral blood perfusion monitoring during MCAO; assay type: in vivo, rat; settings: during MCAO surgery
Experimental: MCAO was performed as previously described. […] The rats were then allowed to recover from anesthesia.
Male Wistar rats were anesthetized with halothane. Cerebral blood perfusion was monitored during surgery and reperfusion including the time of occlusion and the time of reperfusion. A small craniotomy was made midway between the corner of the eye and the external auditory canal. A laser Doppler probe (Perimed AB, Järfälla, Sweden) was placed such that its beam passed through the craniotomy and cerebral blood perfusion measured. Once the baseline measurement was obtained, MCAO was performed. Cerebral blood perfusion was monitored at the time of MCAO and at the time of reperfusion. There were no significant differences in cerebral blood flow reductions during MCAO for any of the treatment groups. Following completion of MCAO, animals were allowed to recover and returned to their cages.

[3] = system: rodent models of cerebral ischemia; settings: in vivo; cited from earlier work
[4] = system: cultured cerebellar granule neurons; settings: cited from earlier work

## CC(C)Cc1ccc(C(C)C(=O)O)cc1 (centres unmarked) [ibuprofen]
Rat cerebellum
  cell death in rat cerebellum: reduces cell death

## CCCCC/C=C/C=C1/C(=O)C=C[C@@H]1C/C=C\CCCC(=O)O [15-deoxy-D12,14-prostaglandin J2]
PPARγ
  concentrations at which it binds PPARγ: 2 to 5 µM
Rat cerebellum
  cell death in rat cerebellum: reduces cell death

## CCCCC[C@H](O)/C=C/[C@H]1C(=O)C=C[C@@H]1C/C=C\CCCC(=O)O [prostaglandin J2]
Hemorrhagic stroke
  benefit in hemorrhagic stroke: beneficial in hemorrhagic stroke

## Nitrolinoleic acid
PPARγ
  Ki: > 1000 nM

## O=C(Nc1ccncc1)c1cc([N+](=O)[O-])ccc1Cl [T0070907]
[1]; T0070907 24 h before and at time of MCAO
  mean absolute infarction volume: 176 mm³
[1]; panel B
  animals that died: one animal

## CN(CCOc1ccc(CC2SC(=O)NC2=O)cc1)c1ccccn1 (centres unmarked) [rosiglitazone, 5-[4-[2-(N-methyl-N-(2-pyridyl)amino]ethoxy]benzyl]thiazolidine-2,4-dione]
ICAM mRNA
  ICAM mRNA compared with vehicle treated rats: significant reduction in ICAM mRNA
PPARγ-PPRE binding
  PPARγ-PPRE binding (densitometry), in words: significantly increase PPARγ-PPRE binding
PPARγ-PPRE binding; listed as Rosiglitazone
  PPARγ-PPRE binding (densitometry), in words: increased DNA binding in both the ischemic and the non-ischemic hemispheres
LPL mRNA
  increase in LPL mRNA levels within the ischemic hemisphere: 254%
[2]
  physiologic parameters (temperature, arterial blood gases, blood pressure, cerebral blood flow) versus vehicle: no differences in physiologic parameters

## CCCCCCCCCCCCCCCCOC[C@H](COP(=O)([O-])OCC[N+](C)(C)C)OC(=O)CCCCCCCC(=O)O [hexadecyl azelaoyl phosphatidyicholine]
PPARγ
  Kd: ~40 nM

## Cc1c(C)c2c(c(C)c1O)CCC(C)(COc1ccc(CC3SC(=O)NC3=O)cc1)O2 (single isomer, unassigned; (+)) [troglitazone, (+)-5[[4-[(3,4-dihydro-6-hydroxy-2,5,7,8-tetramethyl-2H-1-benzopyran-2-yl)methoxy]phenyl]methyl]-2,4thiazolidinedione]
[3]
  neuroprotection in rodent models of cerebral ischemia: effective neuroprotective agents
[4]
  cell death following glutamate exposure: reduces cell death
  low-potassium-induced apoptosis: suppresses low-potassium-induced apoptosis
Rat cerebellum
  cell death in rat cerebellum: reduces cell death
